From patent publication US5935958A, “Muscarinic antagonists” (Schering Corporation, priority 1997, dated 1999)

Experiments:
[1] = biological target: T1, cloned human m2 muscarinic receptor (Homo sapiens, UniProt P08172); assay: Muscarinic binding, inhibition of 3H-QNB binding, m2; settings: for m1/m2 (Ki ratio): Ki for m1 receptors divided by Ki for m2 receptors, higher ratio = greater m2 selectivity; for m4/m2 (Ki ratio): Ki for m4 divided by Ki for m2; for m1/m2 and m4/m2 ratios, in words: tests reported in Table 1
T1 construct: expressed in transfected cells; host or cells: CHO (stably transfected), membranes
T1 sequence (P08172 1-466): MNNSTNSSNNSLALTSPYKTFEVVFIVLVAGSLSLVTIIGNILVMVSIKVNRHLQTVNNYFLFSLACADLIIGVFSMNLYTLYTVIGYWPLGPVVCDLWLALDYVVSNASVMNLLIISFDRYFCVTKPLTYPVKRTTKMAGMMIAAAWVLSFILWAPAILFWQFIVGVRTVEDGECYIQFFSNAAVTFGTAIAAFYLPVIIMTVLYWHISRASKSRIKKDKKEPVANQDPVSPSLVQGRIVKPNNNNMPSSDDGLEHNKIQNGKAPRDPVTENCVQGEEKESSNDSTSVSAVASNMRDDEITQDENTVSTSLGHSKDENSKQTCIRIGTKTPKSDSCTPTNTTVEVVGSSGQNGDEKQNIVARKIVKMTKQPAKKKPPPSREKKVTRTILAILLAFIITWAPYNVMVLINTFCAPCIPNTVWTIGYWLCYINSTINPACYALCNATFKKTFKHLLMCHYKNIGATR

[2] = test system: m2 muscarinic; settings: Baumgold et al., Eur. J. Pharmacol., 251 (1994) 315-317; cited from earlier work
[3] = biological target: T2, cloned human m1 muscarinic receptor (Homo sapiens, UniProt P11229); assay: Muscarinic binding, inhibition of 3H-QNB binding, m1; settings: CHO cell membranes, 25° C., 90 minutes
T2 construct: expressed in transfected cells; host or cells: CHO (stably transfected), membranes
T2 sequence (P11229 1-460): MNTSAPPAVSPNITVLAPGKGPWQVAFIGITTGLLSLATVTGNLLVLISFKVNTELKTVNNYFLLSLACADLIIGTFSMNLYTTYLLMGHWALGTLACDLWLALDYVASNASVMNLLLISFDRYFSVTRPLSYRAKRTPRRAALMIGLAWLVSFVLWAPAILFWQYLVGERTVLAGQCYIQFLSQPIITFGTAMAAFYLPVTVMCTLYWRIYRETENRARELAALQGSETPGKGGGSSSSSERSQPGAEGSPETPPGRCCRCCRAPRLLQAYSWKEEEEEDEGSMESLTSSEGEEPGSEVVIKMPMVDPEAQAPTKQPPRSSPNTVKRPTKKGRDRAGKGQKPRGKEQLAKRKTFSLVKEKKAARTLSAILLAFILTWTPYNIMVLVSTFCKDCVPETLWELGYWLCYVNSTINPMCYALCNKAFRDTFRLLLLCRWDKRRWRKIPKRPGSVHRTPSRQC

[4] = biological target: T3, cloned human m4 muscarinic receptor (Homo sapiens, UniProt P08173); assay: Muscarinic binding, inhibition of 3H-QNB binding, m4; settings: CHO cell membranes, 25° C., 90 minutes
T3 construct: expressed in transfected cells; host or cells: CHO (stably transfected), membranes
T3 sequence (P08173 1-479): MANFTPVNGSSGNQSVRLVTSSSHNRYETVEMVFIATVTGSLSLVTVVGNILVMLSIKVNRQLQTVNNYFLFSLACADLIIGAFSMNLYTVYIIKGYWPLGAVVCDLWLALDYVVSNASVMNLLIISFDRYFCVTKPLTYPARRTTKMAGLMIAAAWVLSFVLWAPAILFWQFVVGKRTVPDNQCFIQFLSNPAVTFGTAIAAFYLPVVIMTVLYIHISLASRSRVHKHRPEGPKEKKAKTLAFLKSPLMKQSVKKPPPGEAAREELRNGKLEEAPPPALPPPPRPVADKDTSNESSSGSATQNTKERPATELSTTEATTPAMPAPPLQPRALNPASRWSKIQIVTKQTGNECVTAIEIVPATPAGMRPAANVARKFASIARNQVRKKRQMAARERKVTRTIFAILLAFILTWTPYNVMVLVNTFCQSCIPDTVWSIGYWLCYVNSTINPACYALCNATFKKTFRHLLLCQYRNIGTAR

| Compound | m1/m2 (Ki ratio) [1] | m4/m2 (Ki ratio) [1] | also measured |
| --- | --- | --- | --- |
| c1cnc(Oc2ccc3c(c2)CCC3N2CCN(C3CCCCC3)CC2)nc1 (single isomer, unassigned) [Compound 10] | 13.2 | 1.5 | m1/m2 and m4/m2 ratios, in words [1]: useful values of the m1/m2 and m4/m2 ratios |
| c1cnc(Oc2ccc3c(c2)CCC3N2CCN(C3CCCCC3)CC2)nc1 (single isomer, unassigned) [Compound 11] | 3.6 |  |  |
| COc1ccc(S(=O)(=O)c2ccc3c(c2)CCC3N2CCN(C3CCCCC3)C[C@H]2C)cc1 (single isomer, unassigned) [Compound 14] | 18.4 | 2.6 | m1/m2 and m4/m2 ratios, in words [1]: useful values of the m1/m2 and m4/m2 ratios |
| COc1ccc(S(=O)(=O)c2ccc3c(c2)CCC3N2CCN(C3CCCCC3)C[C@H]2C)cc1 (single isomer, unassigned) [Compound 15] | 11.2 | 2.5 | m1/m2 and m4/m2 ratios, in words [1]: useful values of the m1/m2 and m4/m2 ratios |
| C[C@H]1CC[C@@H]2N(C1)C[C@H]1[C@@H]3C[C@H]4[C@@H](CC(=O)[C@H]5C[C@@H](Cl)CC[C@@]54C)[C@@H]3CC[C@H]1[C@]2(C)O [3-α-chloroimperialine] |  |  | m2 muscarinic antagonist selectivity, in words [2]: highly selective m2 muscarinic antagonist |
| O=S(=O)(c1ccccc1)c1ccc2c(c1)CCC2N1CCN(CCO)CC1 (stereo not shown) [Compound 1] | 4.5 | 1.3 |  |
| O=[N+]([O-])c1ccc(Oc2ccc3c(c2)OCCC3N2CCN(C3CCCCC3)CC2)cc1 (stereo not shown) [Compound 2, 1-Cyclohexyl-4-[7-[(4-nitrophenyl)oxy]-chroman-4-yl]-piperazine] | 1.5 |  |  |
| Nc1ccc(Oc2ccc3c(c2)OCCC3N2CCN(C3CCCCC3)CC2)cc1 (stereo not shown) [Compound 3] | 0.6 | 0.3 |  |
| CC(=O)Nc1ccc(Oc2ccc3c(c2)OCCC3N2CCN(C3CCCCC3)CC2)cc1 (stereo not shown) [Compound 4] | 1.0 | > 0.9 |  |
| c1cnc(Oc2ccc3c(c2)CCCC3N2CCN(C3CCCCC3)CC2)nc1 (stereo not shown) [Compound 5, 4-Cyclohexyl-1-piperazinyl-[6-[(2-pyrimidinyl)oxy]]-1,2,3,4-tetrahydro-naphthalene] | 7.5 | 1.6 |  |
| O=[N+]([O-])c1ccc(Oc2ccc3c(c2)CCCC3N2CCN(C3CCCCC3)CC2)cc1 (stereo not shown) [Compound 6] | 6.6 | 0.8 |  |
| Nc1ccc(Oc2ccc3c(c2)CCCC3N2CCN(C3CCCCC3)CC2)cc1 (stereo not shown) [Compound 7] | 4.0 | 0.8 |  |
| c1cnc(Oc2ccc3c(c2)CCCCC3N2CCN(C3CCCCC3)CC2)nc1 (stereo not shown) [Compound 8] | 3.3 | 0.9 | Ki [3]: 88 nM; Ki ([1]; 3H-QNB binding, CHO cell membranes, 25° C., 90 minutes): 27 nM; Ki [4]: 23 nM |
| c1cnc(Oc2ccc3c(c2)CCC3N2CCN(C3CCCCC3)CC2)nc1 (stereo not shown) [Compound 9] | 7.7 |  | m1/m2 and m4/m2 ratios, in words [1]: useful values of the m1/m2 and m4/m2 ratios |
| c1cnc(Oc2ccc3c(c2)CC(CC2CCCCC2)C3N2CCN(C3CCCCC3)CC2)nc1 (stereo not shown) [Compound 12, 2-[[1-(4-Cyclohexyl-1-piperazinyl)-2-(cyclohexylmethyl)-2,3-dihydro-1H-inden-5-yl]oxy]pyrimidine] | 1.9 |  |  |
| COc1ccc(S(=O)(=O)c2ccc3c(c2)CCC3N2CCC(N3CCCCC3)CC2)cc1 (stereo not shown) [Compound 13] | 4.0 | 2.0 |  |
